The results in this text go back to ChEMBL document CHEMBL1201862, “PubChem BioAssay data set” (2004).

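Results reflect a 48-hour exposure of cells in 96-well plates to compound at five concentrations. The concentration for 50% growth inhibition is given as GI50.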 Active and inactive are the calls of the source. No stated cut-off is given here; in the data, active = GI50 up to about 1.1 µM and inactive = higher.

What all share (experiment): NCI-60 cell line screen, 48 h
The subject of assay [1] is SF-539.
For assay [2], the system named is UO-31.
The subject of assay [3] is TK-10.
Assay [4] concerns NCI-H522.
Assay [5] concerns SK-MEL-5.
Assay [6] has as its system HCC 2998.
Assay [7] has as its system SW-620.
Assay [8] relates to K562.
Assay [9] deals with SF-268.
In assay [10] the test system is A549.
Assay [11] relates to SK-OV-3.
The test system of assay [12] is HOP-92.
Assay [13] concerns ACHN.
Assay [14] relates to CCRF-CEM.
The test system of assay [15] is Malme-3M.
Assay [16] relates to SK-MEL-28.
Assay [17] deals with DU-145.
For assay [18], the system named is NCI/ADR-RES.
Assay [19] deals with MDA-N.

As for `O=[N+]([O-])C(/C=N/Nc1ccccc1)/C=N/Nc1ccccc1`, the GI50 in assay [1], in [2], in [3], in [4], in assay [5] and in assay [6] was > 100 µM (inactive) in each case. For the same compound, the GI50 in assay [7], in assay [8], in assay [9], in assay [10], in assay [11] and in [12] was > 100 µM (inactive) throughout. Moreover, the GI50 in assay [13], in [14], in [15] and in assay [16] was > 100 µM (inactive) in each case.

In the case of `COC(=O)C(/C(=N\O)C(=O)Nc1ccc(Br)cc1)c1nc2ccccc2nc1O` (stereo unspecified), the GI50 in [1] was 24.4 µM (inactive); in assay [2], > 100 µM (inactive); in assay [3] it was > 10 µM (inactive); in assay [4] it was 17.1 µM (inactive); in [5], 28.6 µM (inactive); in assay [6], 92 µM (inactive). For the same compound, the GI50 in [8] was 26.4 µM (inactive); in [9] it was 39.2 µM (inactive); in assay [10], > 100 µM (inactive); in assay [11], > 100 µM (inactive); in assay [12] it was 35.4 µM (inactive); in assay [13] it was 49.2 µM (inactive). Moreover, the GI50 is 25.3 µM (inactive) in [14], 45.1 µM (inactive) in [15] and 36.7 µM (inactive) in assay [16].

For `COC(=O)C1=C(C)NC(=S)NC1c1ccc(N(CCCl)CCCl)cc1Cl` (stereo unspecified), the GI50 in assay [1] was > 72.6 µM (inactive); in [2] it was 35.8 µM (inactive); in assay [3], 32.4 µM (inactive); in [4], 31.8 µM (inactive); in [5], 1.82 µM (inactive); in assay [17], 12.4 µM (inactive). Moreover, the GI50 is 33 µM (inactive) in assay [7]; 8.99 µM (inactive) in assay [8]; 23.9 µM (inactive) in [9]; 8.2 µM (inactive) in [10]; > 100 µM (inactive) in assay [11]; 37 µM (inactive) in assay [18]. Moreover, the GI50 was 74.8 µM (inactive) in assay [12]; 11 µM (inactive) in assay [13]; 0.824 µM (active) in assay [14]; 3.04 µM (inactive) in assay [15]; 29 µM (inactive) in assay [16].

As for `CNC(=O)CN(CC(=O)O)C(=O)NC`, the GI50 in assay [1], in assay [2], in assay [3], in assay [4], in [5] and in assay [6] was > 100 µM (inactive) each time. The GI50 in [7], in assay [8], in assay [9], in [10], in assay [11] and in [12] was > 100 µM (inactive) throughout. The GI50 in assay [13], in assay [14] and in assay [15] was > 100 µM (inactive) throughout.

For `COc1cc2c(cc1OC)c1c(OC)c(OC)cc3c1c1c2sc(=S)n1CC3`, the GI50 is 48.3 µM (inactive) in assay [1]; > 100 µM (inactive) in [2]; > 100 µM (inactive) in assay [3]; 17.4 µM (inactive) in assay [4]; 41.5 µM (inactive) in assay [5]; 53.1 µM (inactive) in [6]. Also, the GI50 in [7] was 51.1 µM (inactive); in assay [8] it was 21.6 µM (inactive); in assay [9], 28.7 µM (inactive); in [10], > 100 µM (inactive); in [11] it was > 100 µM (inactive); in assay [12] it was > 100 µM (inactive). The GI50 in [13] is > 100 µM (inactive); in [14], 24.5 µM (inactive); in [15] it was 86.3 µM (inactive); in [16] it was 46.9 µM (inactive).

Take `O=c1[nH]c(=O)n(COCc2ccccc2)c2ccc([N+](=O)[O-])cc12`: the GI50 in [1], in assay [2], in [19], in assay [3], in [5] and in [6] was > 100 µM (inactive) each time. Moreover, the GI50 is > 100 µM (inactive) in assay [17]; > 100 µM (inactive) in [7]; > 100 µM (inactive) in assay [8]; > 100 µM (inactive) in assay [10]; > 100 µM (inactive) in [11]; 4.85 µM (inactive) in [18]. The GI50 in assay [12] is > 100 µM (inactive); in assay [13], 25.6 µM (inactive); in assay [14] it was > 100 µM (inactive); in assay [16] it was > 100 µM (inactive).

Take `C#CC1/C(=C\C(=O)OC)CCCC1O` (stereo unspecified): the GI50 in assay [1], in assay [2], in assay [3], in assay [4], in [5] and in assay [6] was > 100 µM (inactive) each time. Also, the GI50 in [7], in assay [8], in [9], in assay [10], in [11] and in assay [12] was > 100 µM (inactive) each time. In addition, the GI50 in [13], in assay [14] and in assay [15] was > 100 µM (inactive) throughout.

In the case of `CC(=O)Oc1cc2c(cc1OC(C)=O)C1(C)CCC2(C)c2cc(OC(C)=O)c(OC(C)=O)cc21`, the GI50 in assay [2] is 23.4 µM (inactive); in assay [3] it was 26.5 µM (inactive); in assay [4], 2.24 µM (inactive); in [5], 22.6 µM (inactive); in assay [6], 25.1 µM (inactive); in assay [7], 7.73 µM (inactive). The GI50 in assay [8] is 5.6 µM (inactive); in assay [9], 19.2 µM (inactive); in assay [10] it was 34 µM (inactive); in assay [11], 29.2 µM (inactive); in [12], 6.9 µM (inactive); in [13] it was 26.1 µM (inactive). The figures for the GI50 in assay [14], in assay [15] and in [16] were 2.87 µM (inactive), 13 µM (inactive) and 21.4 µM (inactive), respectively.

Consider `CN(N=O)C(=O)N(N)CCCCC(NC(=O)OCc1ccccc1)C(=O)OCc1ccccc1` (stereo unspecified), for which the GI50 is 16 µM (inactive) in [1]; 18.7 µM (inactive) in assay [2]; > 100 µM (inactive) in assay [3]; 11.7 µM (inactive) in [4]; 44.7 µM (inactive) in assay [5]; 18.2 µM (inactive) in [6]. In addition, the GI50 in assay [7] was 65.9 µM (inactive); in assay [8] it was 45.4 µM (inactive); in assay [10], 81.8 µM (inactive); in assay [11], > 100 µM (inactive); in assay [12] it was 10.7 µM (inactive); in assay [13], 19 µM (inactive). The GI50 in [14] is 14.3 µM (inactive); in assay [15], 40.1 µM (inactive); in assay [16], > 100 µM (inactive).

With `O=S(=O)(/N=c1\[nH]c(-c2cc(O)c(O)c(O)c2)cs1)c1ccc(Cl)cc1Cl`, the GI50 was 27.6 µM (inactive) in [1]; 20.4 µM (inactive) in assay [2]; 25.1 µM (inactive) in [19]; 4.65 µM (inactive) in assay [3]; 17.9 µM (inactive) in assay [4]; 17.1 µM (inactive) in [5]. For the same compound, the GI50 is 20.3 µM (inactive) in [17]; 18.5 µM (inactive) in [7]; 18.6 µM (inactive) in assay [8]; 20.5 µM (inactive) in assay [9]; 31.9 µM (inactive) in assay [10]; 72.6 µM (inactive) in [11]. Also, the GI50 in assay [18] is 26.4 µM (inactive); in assay [12] it was 41.2 µM (inactive); in assay [13] it was 14.6 µM (inactive); in assay [14] it was 19.9 µM (inactive); in [15], 21.8 µM (inactive); in assay [16], > 100 µM (inactive).

`CCC(=O)C12OC3OC(C)(C)OC3C1OC(C)(C)O2` (stereo unspecified): the GI50 in assay [1] is > 100 µM (inactive); in assay [2] it was > 100 µM (inactive); in assay [3], > 100 µM (inactive); in [4], > 100 µM (inactive); in assay [5], > 10 µM (inactive); in [6] it was > 100 µM (inactive). For the same compound, the GI50 in assay [7], in assay [8], in [9], in assay [10], in assay [11] and in assay [12] was > 100 µM (inactive) throughout. Besides, the GI50 in [13] is > 100 µM (inactive); in [14], > 100 µM (inactive); in assay [15], 9.44 µM (inactive); in [16], > 100 µM (inactive).

Regarding `CCOP(=O)(OCC)C(c1ccccc1)N(C(=O)NC(F)(F)F)c1cccc(F)c1` (stereo unspecified), the GI50 in assay [1] is > 100 µM (inactive); in assay [2], 58.6 µM (inactive); in assay [19], > 100 µM (inactive); in assay [3], > 100 µM (inactive); in assay [4] it was > 100 µM (inactive); in assay [5] it was > 100 µM (inactive). In addition, the GI50 was 55.8 µM (inactive) in assay [6]; > 100 µM (inactive) in assay [17]; > 100 µM (inactive) in assay [7]; 63.8 µM (inactive) in assay [8]; > 100 µM (inactive) in assay [9]; > 100 µM (inactive) in assay [10]. Further, the GI50 was 58.9 µM (inactive) in assay [18]; > 100 µM (inactive) in [13]; > 100 µM (inactive) in assay [14]; > 100 µM (inactive) in assay [15]; > 100 µM (inactive) in assay [16].
